Series [1] can be described thus: Cytotoxicity against African green monkey Vero cells assessed as cell growth inhibition after 48 hrs by MTT assay. The class given is toxicity, cell-based. The settings on record: African green monkey (Chlorocebus sabaeus). Background: Formazan colour is commonly taken as a measure of viable cells.
Series [2] can be described thus: Cytotoxicity against human MCF7 cells assessed as cell growth inhibition after 48 hrs by MTT assay. The settings on record: MCF7, 48 h. The format is functional, cell-based.
Series [3] is described as follows: Cell cycle arrest in human MCF7 cells assessed as accumulation at G2/M phase at 0.5 uM after 18 to 24 hrs by propidium iodide staining based flow cytometry (reference value: 18.8 %). The class given is functional.
Series [4] has as its system MCF7. The experiment in a line: Induction of apoptosis in human MCF7 cells assessed as late apoptotic cells after 24 to 48 hrs by Annexin V/7-AAD staining based flow cytometry (reference value: 16.05 %). The class given is functional. In general terms: Flow cytometry measures light scatter and fluorescence of single cells or particles in a stream.
Series [5] has as its system MCF7. The experiment in a line: Induction of apoptosis in human MCF7 cells assessed as necrotic cells after 24 to 48 hrs by Annexin V/7-AAD staining based flow cytometry (reference value: 6.75 %). The class given is functional.
Series [6] in a line: Cell cycle arrest in human MCF7 cells assessed as accumulation at G0/G1 phase at 0.5 uM after 18 to 24 hrs by propidium iodide staining based flow cytometry (reference value: 67 %). The class given is functional.
Series [7] is described as follows: Cell cycle arrest in human MCF7 cells assessed as accumulation at sub-G0 phase at 0.5 uM after 18 to 24 hrs by propidium iodide staining based flow cytometry (reference value: 1.4 %). The class given is functional.
For series [8], the system named is MCF7. The experiment in a line: Induction of apoptosis in human MCF7 cells assessed as viable cells after 24 to 48 hrs by Annexin V/7-AAD staining based flow cytometry (reference value: 72.30 %). The format is functional.
For series [9], the system named is MCF7. Put plainly: Induction of apoptosis in human MCF7 cells assessed as early apoptotic cells after 24 to 48 hrs by Annexin V/7-AAD staining based flow cytometry (reference value: 4.90 %). The format is functional.
The subject of series [10] is MCF7. Put plainly: Selectivity index, ratio of IC50 for African green monkey Vero cells to IC50 for human MCF7 cells. The class given is functional.
Series [11] in a line: Cell cycle arrest in human MCF7 cells assessed as accumulation at S phase at 0.5 uM after 18 to 24 hrs by propidium iodide staining based flow cytometry (reference value: 8.5 %). The format is functional.

Consider 7 molecules from ChEMBL document CHEMBL3856194, “N'-((2-(6-bromo-2-oxo-2H-chromen-3-yl)-1H-indol-3-yl)methylene)benzohydrazide as a probable Bcl-2/Bcl-xL inhibitor with apoptotic and anti-metastatic potential” (Eur J Med Chem, 2016).

Where only a bound is given, the exact number is not on record here.

By IC50 is commonly meant the midpoint of a concentration-inhibition curve. Take `O=C(N/N=C/c1c(-c2cc3ccccc3oc2=O)[nH]c2ccccc12)c1ccc(Cl)cc1F`: the half-inhibitory concentration (IC50) at 48 h in series [1] is > 200 µM. Further, the IC50 in series [2] was > 200 µM.
In the case of `O=C(N/N=C/c1c(-c2cc3ccccc3oc2=O)[nH]c2ccccc12)c1ccccc1F`, in [1], the IC50 at 48 h was > 200 µM. Also, the half-inhibitory concentration (IC50) in series [2] is > 200 µM.
For the molecule `O=C(N/N=C/c1c(-c2cc3ccccc3oc2=O)[nH]c2ccccc12)c1ccc(Cl)cc1`, the IC50 at 48 h in series [1] is > 200 µM. Also, in series [2], the IC50 was > 200 µM.
For `O=C(N/N=C/c1c(-c2cc3ccccc3oc2=O)[nH]c2ccccc12)c1ccccc1Cl`, the IC50 at 48 h in series [1] is > 200 µM. Further, the IC50 in series [2] stood at 164 µM.
Turning to `CC[C@]1(O)C[C@H]2CN(CCc3c([nH]c4ccccc34)[C@@](C(=O)OC)(c3cc4c(cc3OC)N(C=O)[C@H]3[C@@](O)(C(=O)OC)[C@H](OC(C)=O)[C@]5(CC)C=CCN6CC[C@]43[C@@H]65)C2)C1` [VINCRISTINE], the Activity in [3] was 54.6%; in the series with MCF7 [4], 17.7%; with MCF7 [5] it was 23.45%; in series [6], 17.9%; in series [7], 5.1%; with MCF7 [8] it was 56.1%. Also, the Activity in the series on MCF7 [9] worked out at 2.75%; in [11], 7.8%. Besides, the IC50 at 48 h in series [1] amounted to 0.9 µM. In addition, the IC50 in [2] was found to be 0.3 µM. The “Ratio IC50” value in the series with MCF7 [10] is on record as 3.
As for `O=C(N/N=C/c1c(-c2cc3ccccc3oc2=O)[nH]c2ccccc12)c1ccccc1`, the 50% inhibitory concentration (IC50) at 48 h in series [1] came to 121 µM. Further, the IC50 in series [2] is > 200 µM.
For `O=C(N/N=C/c1c(-c2cc3ccccc3oc2=O)[nH]c2ccccc12)c1cccc(Br)c1` the same measures were > 200 µM and > 200 µM.
